# Test results published in patent publication US5969017A, “Methods of treating or preventing cardiac arrhythmia” (Merck & Co., Inc., priority 1997, dated 1999).
# Entries after “also recorded” stand apart in the source; their conditions may differ. Read-outs that look alike come from different tables or passages of the source.
# Molecular target: T1, hKv1.5 expressed in Chinese Hamster Ovary (CHO) cells (Homo sapiens, UniProt P22460)
# T1 construct: expressed in transfected cells; host or cells: CHO-K1 cells (CHOKI in source), pcDNAI/Neo plasmid, G418-selected clones
# T1 sequence (P22460 whole entry): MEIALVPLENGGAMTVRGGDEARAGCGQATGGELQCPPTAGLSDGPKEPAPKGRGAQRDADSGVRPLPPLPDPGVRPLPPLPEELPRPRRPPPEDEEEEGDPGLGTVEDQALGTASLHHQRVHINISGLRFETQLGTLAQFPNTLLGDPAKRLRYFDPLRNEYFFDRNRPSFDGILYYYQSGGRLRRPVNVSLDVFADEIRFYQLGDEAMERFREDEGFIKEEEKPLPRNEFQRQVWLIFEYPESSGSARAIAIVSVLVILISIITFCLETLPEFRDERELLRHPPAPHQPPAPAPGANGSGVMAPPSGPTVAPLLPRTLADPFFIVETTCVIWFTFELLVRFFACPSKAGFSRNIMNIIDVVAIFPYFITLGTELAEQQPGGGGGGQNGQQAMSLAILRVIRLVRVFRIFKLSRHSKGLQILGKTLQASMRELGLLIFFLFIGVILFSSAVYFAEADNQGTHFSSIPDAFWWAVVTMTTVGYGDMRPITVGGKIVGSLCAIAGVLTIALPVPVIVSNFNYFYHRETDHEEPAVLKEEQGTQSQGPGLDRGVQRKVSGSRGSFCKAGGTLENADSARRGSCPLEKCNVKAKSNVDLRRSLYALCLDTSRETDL
# Test: Voltage clamp measurement of hKv1.5 block (rested state, use-dependent, rate-dependent) in CHO cells
# Assay type: cell-based
# Conditions: for Use-Dpdnt Ratio: 10th vs 1st pulse @ 1 Hz, <1 = use-dependent; for selective blockade of hKv1.5 (in words): relative to other cardiac K+ channels; for use-dependent ratio for block of hKv1.5 (bound) / rate-dependent ratio for block of hKv1.5 (bound): summary of Table 1; for Rate-Dpdnt Ratio: 3 Hz vs 1 Hz, last pulse, <1 = rate-dependent
# Method: A. Measurement of Kv1.5 in CHO cells
# Expression of Kv1.5 in CHO Cells
# A cDNA encoding Kv1.5, isolated from a human fetal heart library, was subcloned into pcDNAI/Neo (Invitrogen) as a Hind III--Xba I fragment.
# CHOKI cells were plated at 2.7×10^4 cells/60 mm dish and incubated at 37° C., in a 5% CO2 environment for three days. Cells were then washed twice and covered with 3 ml of OptiMEM medium (Gibco). Plasmid/DOTAP solution (consisting of […] of Kv1.5 in pcDNAI/Neo and […] DOTAP transfection reagent (Boehringer Mannheim) in 1 ml of OptiMEM) was added dropwise to each plate while swirling. Plates were incubated overnight and the media then changed to 5 mls of F12 (Gibco) supplemented with 10% FBS (Sigma), 1,000 U/ml penicillin […] streptomycin (Gibco), and 2 mM glutamine (Gibco). After two more days, the cells were trypsinized and replated on 100 mm dishes in supplemented F12 media including 1 mg/ml G418 (Gibco). The medium was changed daily until nontransfected cells were killed. Cell lines were grown from individual clones and tested for expression of Kv1.5 using both the ^86 RB efflux assay and voltage clamp protocols. […] These cells were maintained in culture and on each experimental day were freshly isolated by mild trypsinization.
# The patch-clamp technique was used to record ionic currents in the whole-cell configuration. Patch pipettes were obtained using a two stage puller from square bore (1.0 mm o.d.) borosillicate capillary tubing. Pipettes were filled with the following solution (in mM/L): 110 K-Gluconate or K-Aspartate, 20 KCl, 5 MgATP, 5 EGTA, 5-10 HEPES, pH 7.2. The electrodes had tip resistances ranging from 3 to 10 Mohm when filled with this solution. Following seal formation, the membrane was ruptured by gentle suction to establish the whole-cell configuration, and negative pressure was maintained on the pipette using a 1 ml gas-tight syringe attached via air tight tubing to the suction port of the microelectrode holder. […] Currents were sampled at 5 kHz using an Axopatch 200 A amplifier (Axon Instruments) or a List EPC-7 clamp amplifier (List Electronic) and were low pass filtered at 1 kHz.
# Measurements of Kv1.5 Expressed Currents:
# Kv1.5 currents were elicited by 150 ms depolarizing test pulses to +40 mV from a holding potential of -80 mV. The effects of test agents were assessed at steady-state. Data was analyzed as % block from control current amplitude. The amplitude of Kv1.5 was measured as the amplitude of the time-dependent net outward current at the end of the test pulse, relative to the holding current level. […] All experiments were performed at room temperature (22-24° C.).
# C. Measurement of Use-Dependent and Rate-Dependent Block.
# Pulses were applied in 10 second long trains delivered after 30 second rest intervals at frequencies of 1 Hz (10 pulses) or 3 Hz (30 pulses). Percent block of the current is defined as the % decrease in the current amplitude produced by an agent during a given pulse relative to the control current amplitude for that pulse. Rested-state block is the block of the current during the first pulse in a train following the 30 sec rest period. Use-dependent block is block that occurs to a progessively greater extent with each successive depolarization in a train or sequence of pulses or depolarizations delivered at a given rate or frequency. Thus, during a train of 10 depolarizations at frequency of 1 Hz, use-dependent block is assessed as the ratio of the amount of block for the 10th pulse relative to block for the 1st pulse (rested state block) of the train. Rate-dependent block is block that occurs to a greater extent or preferentially at faster rates of depolarization or heart rates. Thus, rate-dependent block is assessed as the ratio of the amount of block of the current during the last pulse of the 10 sec train at 3 Hz vs. 1 Hz.
# [1] = 30 nM, 1st pulse @ 1 Hz, +40 mV from -80 mV, read-out: Average % Block, Rested State, 1st pulse
# [2] = 30 nM, 10th pulse @ 1 Hz, read-out: Average % Block, Use-Dpdnt, 10th pulse
# [3] = 30 nM, 30th pulse @ 3 Hz, read-out: Average % Block, Rate-Dpdnt, 30th pulse
# [4] = 100 nM, 1st pulse @ 1 Hz, read-out: Average % Block, Rested State, 1st pulse
# [5] = 100 nM, 10th pulse @ 1 Hz, read-out: Average % Block, Use-Dpdnt, 10th pulse
# [6] = 100 nM, 30th pulse @ 3 Hz, read-out: Average % Block, Rate-Dpdnt, 30th pulse
# [7] = 300 nM, 1st pulse @ 1 Hz, read-out: Average % Block, Rested State, 1st pulse
# [8] = 300 nM, 10th pulse @ 1 Hz, read-out: Average % Block, Use-Dpdnt, 10th pulse
rate-dependent block of hKv1.5 (in words),use-dependent block of hKv1.5 (in words),inhibition at 0.03 µM [1] [%],inhibition at 0.03 µM [2] [%],inhibition at 0.03 µM [3] [%],inhibition at 0.1 µM [4] [%],inhibition at 0.1 µM [5] [%],inhibition at 0.1 µM [6] [%],Use-Dpdnt Ratio (100 nM),inhibition at 0.3 µM [7] [%],inhibition at 0.3 µM [8] [%],Use-Dpdnt Ratio (300 nM),selective blockade of hKv1.5 (in words),use-dependent ratio for block of hKv1.5 (bound),Rate-Dpdnt Ratio (100 nM),rate-dependent ratio for block of hKv1.5 (bound),Compound,further results
,use-dependentblockade,,,,31.1,34,,0.91,52,62.5,0.83,selective blockade,< 1,,,COc1ccc(-n2nc(Sc3ccc(C)cc3)c(C)c(C#N)c2=O)cc1 [D],
rate-dependent blockers,use-dependentblockade,,,,23.3,29.6,44.9,0.79,43.5,56.6,0.77,selective blockade,< 1,0.66,< 1,"Cc1cc(C)c(CP(=O)(c2ccccc2)c2ccccc2)c(-c2ccc(F)c(C)c2)c1 [B, 2-(Diphenylphosphinylmethyl)-4'-fluoro-3,5,3'-trimethyl-biphenyl]","Rate-Dpdnt Ratio (300 nM): 0.84; inhibition at 0.3 µM (300 nM, 30th pulse @ 3 Hz, read-out: Average % Block, Rate-Dpdnt, 30th pulse): 67.5%"
rate-dependent blockers,use-dependentblockade,6.6,15.7,38,51,75.5,91.1,0.68,,,,selective blockade,< 1,0.83,< 1,"COc1ccc(-n2nc(Sc3ccc(Cl)cc3)c(C)c(C#N)c2=O)cc1 [C, 6-(4-Chlorophenylthio)-2-(4-methoxyphenyl)-5-methyl-3-oxo-2,3-dihydropyridazine-4-carbonitrile]",Rate-Dpdnt Ratio (30 nM): 0.41; Use-Dpdnt Ratio (30 nM): 0.42

Compound,rate-dependent block of hKv1.5 (in words),use-dependent block of hKv1.5 (in words),inhibition at 0.03 µM [1] [%],inhibition at 0.03 µM [2] [%],inhibition at 0.03 µM [3] [%],inhibition at 0.1 µM [4] [%],inhibition at 0.1 µM [5] [%],inhibition at 0.1 µM [6] [%],Use-Dpdnt Ratio (100 nM),inhibition at 0.3 µM [7] [%],inhibition at 0.3 µM [8] [%],Use-Dpdnt Ratio (300 nM),selective blockade of hKv1.5 (in words),use-dependent ratio for block of hKv1.5 (bound),Rate-Dpdnt Ratio (100 nM),rate-dependent ratio for block of hKv1.5 (bound),further results
"CC1CCC(C(C)C)C(P(=O)(c2ccccc2)c2ccccc2)C1 (stereo not drawn) [A, (2-Isopropyl-5-methylcyclohexyl)diphenylphosphine oxide]",rate-dependent blockers; also recorded: strong rate-dependent profile,use-dependentblockade,21.2,38.5,57.5,32.1,64.6,82.9,,,,,,,,,use-dependent block of hKv1.5 (in words) (listed as (2-isopropyl-5-methylcyclohexyl) diphenyl-phosphine oxide): strong use-dependent profile
